# What was measured:
# [1] = test system: H3K9me2 in HCT116 cells; experiment: HCT116 H3K9me2 in-cell western assay; type: cell-based; conditions: Homo sapiens, HCT-116, 72 h, HCT116 cells, 72 hours incubation; read-out: H3K9me2 ICW IC50
# Source text: HCT116 cell line was purchased from ATCC (Manassas, VA, USA). […] Penicillin-Streptomycin and heat inactivated fetal bovine serum were purchased from Hyclone (Logan, UT, USA). DPBS, Corning^R were purchased from VWR (Radnor, PA, USA). Triton′ X-100 was purchased from Sigma (St. Louis, MO, USA). Intercept blocking buffer, DRAQ5, Licor Odyssey Infrared Scanner were purchased from Licor Biosciences (Lincoln, NB, USA). Plate washer was purchased from BioTek (Winooski, VT, USA). […] 16% Paraformaldehyde was purchased from Electron Microscopy Sciences (Hatfield, PA, USA). HCT116 cells were maintained in complete growth medium (RPMI supplemented with 10% heat inactivated fetal bovine serum, 1% Penicillin-Streptomycin) and cultured at 37° C. under 5% CO2. N^2-(4-methoxy-3-(3-(pyrrolidin-1-yl)propoxy)phenyl)-N^4,6-dimethyl]pyrimidine-2,4-diamine (synthesis disclosed in International Application WO2017181177A1) was used as a control compound.
# HCT116 cells (ATCC) were trypsinized, counted and seeded in assay medium (RPMI supplemented with 10% heat inactivated fetal bovine serum, 1% Penicillin-Streptomycin) at a concentration of 2,000 cells per well to a 384-well cell culture plate with compounds in 50 μl per well. Plates were incubated with at 37° C. under 5% CO2 for 72 hours. After the incubation, 50 μl per well of 8% paraformaldehyde in PBS was added to the plates and incubated at room temperature for 20 minutes. Plates were transferred to a BioTek (EL406) plate washer and washed 5 times with 110 μl per well of wash buffer (1×PBS containing 0.1% Triton X-100). The plates were next blocked with 50 μl of Intercept blocking buffer for 1 hour at room temperature. Blocking buffer was removed and 30 μl per well of monoclonal primary antibody of H3K9me2 (CST) diluted 1:200 in Intercept blocking buffer were added and plates were incubated overnight at 4° C. The plates were then washed 5 times with 110 μl per well of wash buffer (1×PBS containing 0.1% Triton X-100). Next 30 μl per well of secondary was added (1:400 800 CW goat anti-rabbit IgG in blocking buffer) with 1:1000 DRAQ5 in blocking buffer and incubated for 2 hours at room temperature. The plates were washed 5 times with 110 μl per well of wash buffer (1×PBS containing 0.1% Triton X-100) then with 100 μl per well of water once. Plates were allowed to dry at room temperature then imaged on a Licor Odyssey Infrared Scanner which measured integrated intensity at 700 nm and 800 nm wavelength. Both 700 and 800 channels were scanned.
# The average of the ratio values (800 nm/700 nm) for each well was calculated and used to determine the percentage for each test well in the plate. Compounds were serially diluted two-fold in 0.1% DMSO for a total of 10 test concentrations beginning at 10 μM. IC50 curves were generated using duplicate wells per concentration of compound. […] IC50 values were calculated using a non-linear regression of Prism.
# [2] = target: T1, human EHMT1 982-1266 (Homo sapiens, UniProt Q9H9B1); experiment: EHMT1 enzyme assay on histone peptide substrate (3H-SAM SPA); conditions: EHMT1 IC50, recombinant human EHMT1 982-1266, histone peptide substrate
# T1 sequence (Q9H9B1 982-1266): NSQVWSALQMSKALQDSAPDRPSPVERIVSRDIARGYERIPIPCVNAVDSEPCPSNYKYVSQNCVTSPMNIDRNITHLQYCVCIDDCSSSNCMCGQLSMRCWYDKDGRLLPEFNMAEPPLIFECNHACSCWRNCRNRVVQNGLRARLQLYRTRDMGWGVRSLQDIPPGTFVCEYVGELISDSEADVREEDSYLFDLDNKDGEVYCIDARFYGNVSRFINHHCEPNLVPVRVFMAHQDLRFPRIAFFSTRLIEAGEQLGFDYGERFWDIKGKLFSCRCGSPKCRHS
# [3] = target: T2, human EHMT2 913-1193 (Homo sapiens, UniProt Q96KQ7); experiment: EHMT2 enzyme assay on histone peptide substrate (3H-SAM SPA); conditions: EHMT2 IC50, recombinant human EHMT2 913-1193, histone peptide substrate
# T2 sequence (Q96KQ7 913-1193): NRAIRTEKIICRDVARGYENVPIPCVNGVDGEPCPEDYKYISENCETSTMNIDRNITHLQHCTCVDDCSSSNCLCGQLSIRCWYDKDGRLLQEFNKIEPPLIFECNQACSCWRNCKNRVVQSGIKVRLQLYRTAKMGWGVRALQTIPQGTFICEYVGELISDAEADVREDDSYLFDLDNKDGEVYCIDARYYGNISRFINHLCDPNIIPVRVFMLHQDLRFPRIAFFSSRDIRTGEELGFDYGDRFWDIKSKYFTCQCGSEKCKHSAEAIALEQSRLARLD
SMILES,IC50 [1],IC50 [2],IC50 [3]
"CNc1cc(C)nc(Nc2cc3c(c(C4=C[C@H]5CNC[C@H]5C4)c2)OCC3)n1 (racemic) [Compound 133, N2-[7-(1,2,3,3a,6,6a-hexahydrocyclopenta [c]pyrrol-5-yl)-2,3-dihydrobenzofuran-5-yl]-N4,6-dimethyl-pyrimidine-2,4-diamine]",500 to 2000 nM,100 to 500 nM,500 to 2000 nM
"CNc1cc(C)nc(Nc2cc3c(c(C4=C[C@H]5CNC[C@H]5C4)c2)OC(F)(F)O3)n1 (racemic) [Compound 143, N2-[7-(1,2,3,3a,6,6a-hexahydrocyclopenta[c]pyrrol-5-yl)-2,2-difluoro-1,3-benzodioxol-5-yl]-N4,6-dimethyl-pyrimidine-2,4-diamine]",> 2000 nM,100 to 500 nM,> 2000 nM
"CNc1cc(C)nc(Nc2cc3c(c(C4=C[C@@H]5CNC[C@@H]5C4)c2F)OCC3)n1 (racemic) [Compound 359, N2-[7-(1,2,3,3a,6,6a-hexahydrocyclopenta[c]pyrrol-5-yl)-6-fluoro-2,3-dihydrobenzofuran-5-yl]-N4,6-dimethyl-pyrimidine-2,4-diamine]",100 to 500 nM,< 100 nM,100 to 500 nM
"CNc1cc(C)nc(Nc2cc3c(c(C4=CCNCC(O)C4)c2C)OCC3)n1 (single isomer, unassigned) [Compound 358]",100 to 500 nM,100 to 500 nM,100 to 500 nM
"CNc1cc(C)nc(Nc2cc3c(c(C4=CCN(C)CC(O)C4)c2C)OCC3)n1 (single isomer, unassigned) [Compound 375]",100 to 500 nM,100 to 500 nM,500 to 2000 nM
"CNc1cc(C)nc(Nc2cc3c(c(C4=CCNC[C@H](O)C4)c2F)OC[C@H]3C)n1 (stereo in doubt) [Compound 398, rel-(3R)-5-[rel-(3S)-6-fluoro-3-methyl-5-[[4-methyl-6-(methylamino)pyrimidin-2-yl]amino]-2,3-dihydrobenzofuran-7-yl]-2,3,4,7-tetrahydro-1H-azepin-3-ol]",< 100 nM,< 100 nM,100 to 500 nM
Cc1cc(N(C)C)nc(Nc2cc3c(c(C4=CCN(C)CCC4)c2)OCC3)n1 [Compound 139],500 to 2000 nM,,
CNc1cc(C)nc(Nc2cc3c(c(C4=CCNC(C)CC4)c2F)OCC3)n1 (stereo not shown) [Compound 202],< 100 nM,,
[2H]Cc1cc(NC([2H])([2H])[2H])nc(Nc2cc3c(c(C4=CCNCCC4)c2F)OCC3)n1 [Compound 249],< 100 nM,,
[2H]C([2H])([2H])Nc1cc(C)nc(Nc2cc3c(c(C4=CCNCCC4)c2F)OCC3)n1 [Compound 253],< 100 nM,,

# The next lines start with the values.
IC50 [1],IC50 [2],IC50 [3],SMILES
< 100 nM,< 100 nM,< 100 nM,"CNc1cc(C)nc(Nc2cc3c(c(C4=CCN(C)CC(O)C4)c2F)OCC3)n1 (single isomer, unassigned) [Compound 352]"
< 100 nM,< 100 nM,< 100 nM,"CNc1cc(C)nc(Nc2cc3c(c(C4=CCNCC(O)C4)c2C)OCCC3)n1 (single isomer, unassigned) [Compound 355]"
< 100 nM,< 100 nM,100 to 500 nM,"CNc1cc(C)nc(Nc2cc3c(c(C4=CCNCC(O)C4)c2Cl)OCC3)n1 (single isomer, unassigned) [Compound 376]"
< 100 nM,< 100 nM,< 100 nM,"CNc1cc(C)nc(Nc2cc3c(c(C4=CCNC(C)CC4)c2C)OCC3)n1 (single isomer, unassigned) [Compound 383]"
< 100 nM,< 100 nM,< 100 nM,"CNc1cc(C)nc(Nc2cc3c(c(C4=CCNCC(O)C4)c2F)OCO3)n1 (single isomer, unassigned) [Compound 428]"
< 100 nM,< 100 nM,100 to 500 nM,"CNc1cc(C)nc(Nc2cc3c(c(C4=CCC(N)CC4)c2F)OCC3)n1 (single isomer, unassigned) [Compound 435]"

# Source: US20240368139A1, “NOVEL MODULATORS OF EHMT1 AND EHMT2 AND THERAPEUTIC USE THEREOF” (Tango Therapeutics, Inc., priority 2021, published 2024)
